These results are taken from US9777003B2, “Tricyclic heterocycles as bet protein inhibitors” (Incyte Corporation, priority 2013, dated 2017).

Structures can show the parent of a compound that is named as a salt. Where only a bound is given, the exact number is not on record here.

Experiment [1] addresses BRD4-BD1 (Homo sapiens (Human), UniProt O60885). Put plainly: BRD4 AlphaScreen assay, BRD4-BD1. The class given is binding. Particulars: biotin-labeled tetra-acetylated histone H4 peptide, 75 min, room temperature, read-out: BRD4 BD-1 enzyme IC50. As for the experimental part: (§1) BRD4-BD1 and BRD4-BD2 assays were conducted in white 384-well polystyrene plate in a final volume of 20 μL for BD1 and 40 μL for BD2. Inhibitors were first serially diluted in DMSO and added to the plate wells before the addition of other reaction components. The final concentration of DMSO in the assay was 1.25% (BD1) and 0.83% (BD2). The assays were carried out at room temperature for 75 min. in the assay buffer (50 mM HEPES, pH 7.4, 100 mM NaCl, 0.05% CHAPS, 0.01% BSA), containing 50 nM Biotin-labeled tetra-acetylated histone H4 peptide (H4Ac4), 3.8 nM (BRD4-BD1, BPS Bioscience #31040) or 20 nM (BRD4-BD2, BPS Bioscience #31041). The reaction followed by the addition of 20 μL of assay buffer supplemented with Streptavidin donor beads (PerkinElmer 6760002) and GSH Acceptor beads (PerkinElmer-AL109C) at 4 μg/mL under reduced light. After plate sealing, the plate was incubated in the dark at room temperature for 75 min. before reading on a PHERAstar FS plate reader (BMG Labtech). IC50 determination was performed by fitting the curve of percent control activity versus the log of the inhibitor concentration using the GraphPad Prism 5.0 software.

Experiment [2] addresses BRD4-BD2 (Homo sapiens (Human), UniProt O60885). Put plainly: BRD4 AlphaScreen assay, BRD4-BD2. Particulars: biotin-labeled tetra-acetylated histone H4 peptide, 75 min, room temperature, read-out: BRD4 BD-2 enzyme IC50. The class given is binding. Here is the method: as §1
(In general: Alpha assays give light when donor and acceptor beads are brought close together.)

Broadly, the IC50 is the concentration that gives 50% inhibition. For the molecule `Cc1cccc(Cn2c(C)cc3c2ccc2nnc(C)n23)c1` [Example 18, 1,7-dimethyl-6-(3-methylbenzyl)-6H-pyrrolo[2,3-e][1,2,4]triazolo[4,3-a]pyridine], the IC50 in experiment [1] and in experiment [2] was no more than 100 nM throughout.
On to `Cc1ccc(Cn2c(C)cc3c2ccc2nnc(C)n23)cc1` [Example 19, 1,7-dimethyl-6-(4-methylbenzyl)-6H-pyrrolo[2,3-e][1,2,4]triazolo[4,3-a]pyridine], for which the IC50 in experiment [1] and in experiment [2] was no more than 100 nM each time.
`Cc1cc2c(ccc3nnc(C)n32)n1Cc1cccc(C#N)c1` [Example 20, 3-[(1,7-dimethyl-6H-pyrrolo[2,3-e][1,2,4]triazolo[4,3-a]pyridine-6-yl)methyl]benzonitrile]: the half-maximal inhibitory concentration (IC50) in experiment [1] was 100 to 1000 nM; in experiment [2] it was no more than 100 nM.
For `Cc1cc2c(ccc3nnc(C)n32)n1Cc1ccc2ccccc2n1` [Example 21, 1,7-dimethyl-6-(quinolin-2-ylmethyl)-6H-pyrrolo[2,3-e][1,2,4]triazolo[4,3-a]pyridine] the same measures were 100 to 1000 nM and no more than 100 nM.
The matching figures for `COc1cccc(Cn2c(C)cc3c2ccc2nnc(C)n23)c1` [Example 22, 6-(3-methoxybenzyl)-1,7-dimethyl-6H-pyrrolo[2,3-e][1,2,4]triazolo[4,3-a]pyridine]: 100 to 1000 nM and no more than 100 nM.
In the case of `Cc1cc2c(ccc3nnc(C)n32)n1Cc1cccc(O)c1` [Example 23, 3-[(1,7-dimethyl-6H-pyrrolo[2,3-e][1,2,4]triazolo[4,3-a]pyridin-6-yl)methyl]phenol], the IC50 in experiment [1] and in experiment [2] was no more than 100 nM each time.
In the case of `CC(=O)Nc1cccc(Cn2c(C)cc3c2ccc2nnc(C)n23)c1` [Example 25, N-{3-[(1,7-dimethyl-6H-pyrrolo[2,3-e][1,2,4]triazolo[4,3-a]pyridin-6-yl)methyl]phenyl}acetamide Trifluoroacetate Salt], the half-maximal inhibitory concentration (IC50) in experiment [1] was 100 to 1000 nM; in experiment [2], no more than 100 nM.
Consider `Cc1cc2c(ccc3nnc(C)n32)n1Cc1cccc(CO)c1` [Example 26, {3-[(1,7-dimethyl-6H-pyrrolo[2,3-e][1,2,4]triazolo[4,3-a]pyridin-6-yl)methyl]phenyl}methanol Trifluoroacetate Salt], for which the IC50 in experiment [1] and in experiment [2] was no more than 100 nM throughout.
With `Cc1cc2c(ccc3nnc(C)n32)n1Cc1cccc(CN2CC(O)C2)c1` [Example 27, 1-(3-((1,7-dimethyl-6H-pyrrolo[2,3-e][1,2,4]triazolo[4,3-a]pyridin-6-yl)methyl)benzyl)azetidin-3-ol bis-trifluoroacetate Salt], the IC50 in experiment [1] and in experiment [2] was no more than 100 nM each time.
For the molecule `Cc1cc2c(ccc3nnc(C)n32)n1Cc1cccc(CN2CCC2)c1` [Example 28, 6-[3-(azetidin-1-ylmethyl)benzyl]-1,7-dimethyl-6H-pyrrolo[2,3-e][1,2,4]triazolo[4,3-a]pyridine], the IC50 in experiment [1] and in experiment [2] was no more than 100 nM throughout.
Regarding `Cc1cc2c(ccc3nnc(C)n32)n1Cc1cccc(C(N)=O)c1` [Example 30, 3-((1,7-dimethyl-6H-pyrrolo[2,3-e][1,2,4]triazolo[4,3-a]pyridin-6-yl)methyl)benzamide Trifluoroacetate Salt], the IC50 was 100 to 1000 nM in experiment [1] and no more than 100 nM in experiment [2].
`Cc1cc2c(ccc3nnc(C)n32)n1Cc1cccc(C(=O)NO)c1` [Example 31, 3-[(1,7-dimethyl-6H-pyrrolo[2,3-e][1,2,4]triazolo[4,3-a]pyridin-6-yl)methyl]-N-hydroxybenzamide Trifluoroacetate Salt]: the IC50 is 100 to 1000 nM in experiment [1] and no more than 100 nM in experiment [2].
In the case of `CNC(=O)c1cccc(Cn2c(C)cc3c2ccc2nnc(C)n23)c1` [Example 32, 3-[(1,7-dimethyl-6H-pyrrolo[2,3-e][1,2,4]triazolo[4,3-a]pyridin-6-yl)methyl]-N-methylbenzamide Trifluoroacetate Salt], the figures for the IC50 in experiment [1] and in experiment [2] were 100 to 1000 nM and no more than 100 nM, respectively.
Consider `CCNC(=O)c1cccc(Cn2c(C)cc3c2ccc2nnc(C)n23)c1` [Example 33, 3-[(1,7-dimethyl-6H-pyrrolo[2,3-e][1,2,4]triazolo[4,3-a]pyridin-6-yl)methyl]-N-ethylbenzamide Trifluoroacetate Salt], for which the figures for the IC50 in experiment [1] and in experiment [2] were 100 to 1000 nM and no more than 100 nM, respectively.
For `COc1ccc(Cn2c(C)cc3c2ccc2nnc(C)n23)cc1` [Example 34, 6-(4-methoxybenzyl)-1,7-dimethyl-6H-pyrrolo[2,3-e][1,2,4]triazolo[4,3-a]pyridine], the IC50 in experiment [1] and in experiment [2] was no more than 100 nM in each case.
As for `Cc1cc2c(ccc3nnc(C)n32)n1Cc1ccc(O)cc1` [Example 35, 4-[(1,7-dimethyl-6H-pyrrolo[2,3-e][1,2,4]triazolo[4,3-a]pyridin-6-yl)methyl]phenol], the IC50 in experiment [1] and in experiment [2] was no more than 100 nM in each case.
Turning to `Cc1cc2c(ccc3nnc(C)n32)n1Cc1cccc(CNCCO)c1` [Example 36, 2-({3-[(1,7-dimethyl-6H-pyrrolo[2,3-e][1,2,4]triazolo[4,3-a]pyridin-6-yl)methyl]benzyl}amino)ethanol], the 50% inhibitory concentration (IC50) in experiment [1] and in experiment [2] was no more than 100 nM in each case.
On to `Cc1cc2c(ccc3nnc(C)n32)n1Cc1cccc(CN(C)CCO)c1` [Example 37, 2-[{3-[(1,7-dimethyl-6H-pyrrolo[2,3-e][1,2,4]triazolo[4,3-a]pyridin-6-yl)methyl]benzyl}(methyl)amino]ethanol], for which the IC50 was 100 to 1000 nM in experiment [1] and no more than 100 nM in experiment [2].
For `Cc1cc2c(ccc3nnc(C)n32)n1Cc1cccc(CN2CCOCC2)c1` [Example 38, 1,7-dimethyl-6-[3-(morpholin-4-ylmethyl)benzyl]-6H-pyrrolo[2,3-e][1,2,4]triazolo[4,3-a]pyridine] the same measures were 100 to 1000 nM and no more than 100 nM.
Turning to `Cc1cc2c(ccc3nnc(C)n32)n1Cc1cccc(CN[C@H]2C[C@H](O)C2)c1` [Example 39, (1r,3r)-3-((3-((1,7-dimethyl-6H-pyrrolo[2,3-e][1,2,4]triazolo[4,3-a]pyridin-6-yl)methyl)benzyl)amino)cyclobutanol], the results for the IC50 in experiment [1] and in experiment [2] were 100 to 1000 nM and no more than 100 nM, respectively.
For `Cc1cc2c(ccc3nnc(C)n32)n1Cc1cccc(CN(C)C)c1` [Example 40, 1-{3-[(1,7-dimethyl-6H-pyrrolo[2,3-e][1,2,4]triazolo[4,3-a]pyridin-6-yl)methyl]phenyl}-N,N-dimethylmethanamine], the 50% inhibitory concentration (IC50) in experiment [1] and in experiment [2] was no more than 100 nM in each case.
Take `CNCc1cccc(Cn2c(C)cc3c2ccc2nnc(C)n23)c1` [Example 41, 1-{3-[(1,7-dimethyl-6H-pyrrolo[2,3-e][1,2,4]triazolo[4,3-a]pyridin-6-yl)methyl]phenyl}-N-methylmethanamine]: the IC50 in experiment [1] and in experiment [2] was no more than 100 nM in each case.
As for `CCNCc1cccc(Cn2c(C)cc3c2ccc2nnc(C)n23)c1` [Example 42, N-{3-[(1,7-dimethyl-6H-pyrrolo[2,3-e][1,2,4]triazolo[4,3-a]pyridin-6-yl)methyl]benzyl}ethanamine], the concentration for half-maximal inhibition (IC50) in experiment [1] and in experiment [2] was no more than 100 nM throughout.
For `CCNC(=O)Nc1cccc(Cn2c(C)cc3c2ccc2nnc(C)n23)c1` [Example 43, N-{3-[(1,7-dimethyl-6H-pyrrolo[2,3-e][1,2,4]triazolo[4,3-a]pyridin-6-yl)methyl]phenyl}-N′-ethylurea Trifluoroacetate Salt], the results for the IC50 in experiment [1] and in experiment [2] were 100 to 1000 nM and no more than 100 nM, respectively.
As to `Cc1cc2c(ccc3nnc(C)n32)n1Cc1cccc(NC(N)=O)c1` [Example 44, N-{3-[(1,7-dimethyl-6H-pyrrolo[2,3-e][1,2,4]triazolo[4,3-a]pyridin-6-yl)methyl]phenyl}urea], the values for the IC50 in experiment [1] and in experiment [2] were 100 to 1000 nM and no more than 100 nM, respectively.
Turning to `Cc1cc2c(ccc3nnc(C)n32)n1Cc1cccc(CN2CCCC2)c1` [Example 45, 1,7-dimethyl-6-[3-(pyrrolidin-1-ylmethyl)benzyl]-6H-pyrrolo[2,3-e][1,2,4]triazolo[4,3-a]pyridine], the concentration for half-maximal inhibition (IC50) in experiment [1] and in experiment [2] was no more than 100 nM throughout.
As for `Cc1cc2c(ccc3nnc(C)n32)n1Cc1cccc(CN2CCCCC2)c1` [Example 46, 1,7-dimethyl-6-[3-(piperidin-1-ylmethyl)benzyl]-6H-pyrrolo[2,3-e][1,2,4]triazolo[4,3-a]pyridine], the IC50 in experiment [1] and in experiment [2] was no more than 100 nM throughout.
For `Cc1cc2c(ccc3nnc(C)n32)n1Cc1cccc(CN2CCN(C)CC2)c1` [Example 47, 1,7-dimethyl-6-{3-[(4-methylpiperazin-1-yl)methyl]benzyl}-6H-pyrrolo[2,3-e][1,2,4]triazolo[4,3-a]pyridine], the half-inhibitory concentration (IC50) in experiment [1] is 100 to 1000 nM; in experiment [2] it was no more than 100 nM.
`Cc1cc2c(ccc3nnc(C)n32)n1Cc1cccc(CN2CCNCC2)c1` [Example 48, 1,7-dimethyl-6-[3-(piperazin-1-ylmethyl)benzyl]-6H-pyrrolo[2,3-e][1,2,4]triazolo[4,3-a]pyridine]: the results for the IC50 in experiment [1] and in experiment [2] were 100 to 1000 nM and no more than 100 nM, respectively.
